pIC50: −log10 of the molar value.

Chain of HDM2 (truncated, residues 17 to 125, containing p53 binding surface) (Q00987 17-125): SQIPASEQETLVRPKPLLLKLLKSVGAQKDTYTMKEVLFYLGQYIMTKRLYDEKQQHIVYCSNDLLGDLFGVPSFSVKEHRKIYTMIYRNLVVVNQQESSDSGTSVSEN

The target in one assay is HDM2 (truncated, residues 17 to 125, containing p53 binding surface) (Homo sapiens (Human), UniProt Q00987). In words: HDM2 FRET assay (inhibition of binding of FITC labeled p53-site peptide to HDM2). The note with it: Table 16. An excerpt:
IC50 DETERMINATIONS: Dose-response curves were plotted from the inhibition data, from 10 point serial dilutions of inhibitory compounds. Concentration of compound was plotted against em520/Cem495 ratio signal. To generate IC50 values, the dose-response curves were fitted to a standard sigmoidal curve and IC50 values were derived by nonlinear regression analysis.
The molecule `COCCOc1cc(Cl)cc(-c2nc(-c3noc(=O)[nH]3)nc3nc(N4CCO[C@@H]5CCC[C@H]54)n(C[C@H]4CC[C@H](C)CC4)c23)c1` (racemic) [Example 16.160, 3-{6-[3-chloro-5-(2-methoxyethoxyl)phenyl]-8-[(trans)-hexahydrocyclopenta[b][1,4]oxazin-4(4aH)-yl]-7-[(trans-4-methylcyclohexyl)methyl]-7H-purin-2-yl}-1,2,4-oxadiazol-5(4H)-one] had a pIC50 of 7.68.

For `CO[C@H]1CCN(c2nc3nc(-c4n[nH]c(=O)o4)nc(-c4cncc(Cl)c4)c3n2C[C@H]2CC[C@H](C)CC2)[C@@H](C)C1` (racemic) [Example 16.154, 5-{6-(5-chloropyridin-3-yl)-8-[(cis)-4-methoxy-2-methylpiperidin-1-yl]-7-[(trans-4-methylcyclohexyl)methyl]-7H-purin-2-yl}-1,3,4-oxadiazol-2(3H)-one], the negative-log IC50 (pIC50) is 7.17.

Still in this assay, the particulars now being: Table 18.
In the case of `CC(C)c1ccnc(-c2nc3nc(-c4noc(=O)[nH]4)nc(N[C@H](C)C4CCC4)c3n2C[C@@H]2CC[C@@H](C)C(F)(F)C2)c1` (stereo in doubt) [Example 18.11, 3-(6-(((R)-1-cyclobutylethyl)amino)-7-((trans-3,3-difluoro-4-methylcyclohexyl)methyl)-8-(4-isopropylpyridin-2-yl)-7H-purin-2-yl)-1,2,4-oxadiazol-5(4H)-one], the negative-log IC50 (pIC50) is 8.55.

In the case of `CC([C@H]1CC[C@H](C)CC1)n1c(N2CCOC3CCCC32)nc2nc(-c3noc(=O)[nH]3)nc(-c3cncc(Cl)c3)c21` (single isomer, unassigned) [Example 18.53, 3-{6-(5-chloropyridin-3-yl)-8-(hexahydrocyclopenta[b][1,4]oxazin-4(4aH)-yl)-7-[1-(trans-4-methylcyclohexyl)ethyl]-7H-purin-2-yl}-1,2,4-oxadiazol-5(4H)-one], the negative-log IC50 (pIC50) is 8.13.

The assay is the same for the next values; noted with them: Table 23.
In turn, `CC(F)(c1ccccn1)c1nc2nc(-c3noc(=O)[nH]3)nc(-c3cccc(Cl)c3)c2n1C[C@H]1CC[C@H](C)CC1` (single isomer, unassigned) [Example 23.30, 3-{6-(3-chlorophenyl)-8-(1-fluoro-1-pyridin-2-ylethyl)-7-[(trans-4-methylcyclohexyl)methyl]-7H-purin-2-yl}-1,2,4-oxadiazol-5(4H)-one] had a negative logarithm of the IC50 (pIC50) of 8.17.

Take `CC(O)(c1nc2nc(-c3n[nH]c(=O)o3)nc(-c3cccc(Cl)c3)c2n1C[C@H]1CC[C@H](C)CC1)C1CCCCC1` (mixture of isomers) [Example 23.11, 5-{6-(3-chlorophenyl)-8-(1-cyclohexyl-1-hydroxyethyl)-7-[(trans-4-methylcyclohexyl)methyl]-7H-purin-2-yl}-1,3,4-oxadiazol-2(3H)-one]: the pIC50 is 6.67.

`CC(F)(c1ncccc1F)c1nc2nc(-c3n[nH]c(=O)o3)nc(-c3cncc(Cl)c3)c2n1C[C@H]1CC[C@H](C)CC1` (single isomer, unassigned) [Example 23.85, 5-{6-(5-chloropyridin-3-yl)-8-[1-fluoro-1-(3-fluoropyridin-2-yl)ethyl]-7-[(trans-4-methylcyclohexyl)methyl]-7H-purin-2-yl}-1,3,4-oxadiazol-2(3H)-one] gave a negative-log IC50 (pIC50) of 9.44.

`COC1(c2nc3nc(-c4n[nH]c(=O)o4)nc(-c4cncc(Cl)c4)c3n2C[C@H]2CC[C@H](C)CC2)CCOc2cccnc21` (mixture of isomers) [Example 23.90, 5-{6-(5-chloropyridin-3-yl)-8-(4-methoxy-3,4-dihydro-2H-pyrano[3,2-b]pyridin-4-yl)-7-[(trans-4-methylcyclohexyl)methyl]-7H-purin-2-yl}-1,3,4-oxadiazol-2(3H)-one] gave a pIC50 of 8.13.

`COc1ccccc1C(C)(OC)c1nc2nc(-c3noc(=O)[nH]3)nc(-c3cncc(Cl)c3)c2n1C[C@H]1CC[C@H](C)CC1` (mixture of isomers) [Example 23.79, 3-{6-(5-chloropyridin-3-yl)-8-[1-methoxy-1-(2-methoxyphenyl)ethyl]-7-[(trans-4-methylcyclohexyl)methyl]-7H-purin-2-yl}-1,2,4-oxadiazol-5(4H)-one] showed a pIC50 of 8.42.

For `COC(C)(c1ccccn1)c1nc2nc(-c3n[nH]c(=O)o3)nc(-c3cccc(Cl)c3)c2n1C[C@H]1CC[C@H](C)CC1` (single isomer, unassigned) [Example 23.55, 5-{6-(3-chlorophenyl)-8-(1-methoxy-1-pyridin-2-ylethyl)-7-[(trans-4-methylcyclohexyl)methyl]-7H-purin-2-yl}-1,3,4-oxadiazol-2(3H)-one], the pIC50 is 8.37.

In turn, `CC1COCCC1(F)c1nc2nc(-c3noc(=O)[nH]3)nc(-c3cncc(Cl)c3)c2n1C[C@H]1CC[C@H](C)CC1` (single isomer, unassigned) [Example 23.95, 3-{6-(5-chloropyridin-3-yl)-8-(4-fluoro-3-methyltetrahydro-2H-pyran-4-yl)-7-[(trans-4-methylcyclohexyl)methyl]-7H-purin-2-yl}-1,2,4-oxadiazol-5(4H)-one] showed a negative-log IC50 (pIC50) of 8.36.

Molecule `CC(F)(c1c(F)cccc1F)c1nc2nc(-c3noc(=O)[nH]3)nc(-c3cncc(Cl)c3)c2n1C[C@H]1CC[C@H](C)CC1` (single isomer, unassigned) [Example 23.69, 3-{6-(5-chloropyridin-3-yl)-8-[1-(2,6-difluorophenyl)-1-fluoroethyl]-7-[(trans-4-methylcyclohexyl)methyl]-7H-purin-2-yl}-1,2,4-oxadiazol-5(4H)-one] showed a pIC50 of 9.81.

In turn, `COC(C)(c1nc2nc(-c3n[nH]c(=O)o3)nc(-c3cncc(Cl)c3)c2n1C[C@H]1CC[C@H](C)CC1)C1CCCC1` (mixture of isomers) [Example 23.72, 5-{6-(5-chloropyridin-3-yl)-8-(1-cyclopentyl-1-methoxyethyl)-7-[(trans-4-methylcyclohexyl)methyl]-7H-purin-2-yl}-1,3,4-oxadiazol-2(3H)-one] gave a negative logarithm of the IC50 (pIC50) of 8.59.

The molecule `COC(c1nc2nc(-c3noc(=O)[nH]3)nc(-c3cncc(Cl)c3)c2n1C[C@H]1CC[C@H](C)CC1)C1CCOCC1` (mixture of isomers) [Example 23.18, 3-{6-(5-chloropyridin-3-yl)-8-[methoxy(tetrahydro-2H-pyran-4-yl)methyl]-7-[(trans-4-methylcyclohexyl)methyl]-7H-purin-2-yl}-1,2,4-oxadiazol-5(4H)-one] showed a negative logarithm of the IC50 (pIC50) of 7.62.

With `CC(F)(c1c(F)cccc1F)c1nc2nc(-c3noc(=O)[nH]3)nc(-c3cncc(Cl)c3)c2n1C[C@H]1CC[C@H](C)CC1` (single isomer, unassigned) [Example 23.68, 3-{6-(5-chloropyridin-3-yl)-8-[1-(2,6-difluorophenyl)-1-fluoroethyl]-7-[(trans-4-methylcyclohexyl)methyl]-7H-purin-2-yl}-1,2,4-oxadiazol-5(4H)-one], the pIC50 was 8.37.

The molecule `C[C@H]1CC[C@H](Cn2c(C3(F)CCOc4cccnc43)nc3nc(-c4n[nH]c(=O)o4)nc(-c4cncc(Cl)c4)c32)CC1` (mixture of isomers) [Example 23.92, 5-{6-(5-chloropyridin-3-yl)-8-(4-fluoro-3,4-dihydro-2H-pyrano[3,2-b]pyridin-4-yl)-7-[(trans-4-methylcyclohexyl)methyl]-7H-purin-2-yl}-1,3,4-oxadiazol-2(3H)-one] had a negative logarithm of the IC50 (pIC50) of 8.61.

As a reminder, the pIC50 is the negative decadic logarithm of the IC50, by convention in mol/L. Low values mean a large IC50, high ones a small IC50.

The values are drawn from patent US9540377B2, “2,6,7,8 substituted purines as HDM2 inhibitors” (Merck Sharp & Dohme Corp., priority 2013, dated 2017).
